Several values for one entry are separate records, joined by “and”; a condition that tells them apart may be missing. Equal values may be shown once. Inconclusive results and toxic doses are left out.
System: L1210 leukemia ip in BDF1 mice, survival T/C
Experiment: NCI In Vivo Anticancer Drug Screen. Data for tumor model L1210 Leukemia (intraperitoneal) in B6D2F1 (BDF1) mice
Details: endpoint: mean survival time, higher = longer survival
Summary of the method: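 Transplantable tumor model; survival measured in treated vs vehicle control mice. Value = treated/control.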

[1] = dose: 100.0 mg/kg/injection, schedule: Q04DX003 (ip), vehicle: saline with Tween-80
[2] = dose: 200.0 mg/kg/injection, schedule: Q04DX003 (ip), vehicle: saline with Tween-80
[3] = dose: 400.0 mg/kg/injection, schedule: Q04DX003 (ip), vehicle: saline with Tween-80

Which results are given for `O=C(O)C1C(c2ccccc2)CC(=O)N1c1ccc(Cl)cc1` (stereo not given)?
T/C (dose: 100.0 mg/kg/injection, schedule: Q04DX002 (ip), vehicle: Klucel (hydroxypropylcellulose) (HPC)): 102 % of control; T/C (dose: 200.0 mg/kg/injection, schedule: Q04DX002 (ip), vehicle: Klucel (hydroxypropylcellulose) (HPC)): 91 % of control; T/C (dose: 400.0 mg/kg/injection, schedule: Q04DX002 (ip), vehicle: Klucel (hydroxypropylcellulose) (HPC)): 94 % of control

What does the source list for `O=C1N[C@@H]([C@H]2CC[C@H](Cl)CN2)C(=O)N[C@H]1[C@H]1CC[C@H](Cl)CN1`?
T/C (dose: 0.05 mg/kg/injection, schedule: Q01DX009 (ip), vehicle: saline): 98 % of control and 109 % of control; T/C (dose: 0.1 mg/kg/injection, schedule: Q01DX009 (ip), vehicle: saline): 104 % of control and 113 % of control; T/C (dose: 0.2 mg/kg/injection, schedule: Q01DX009 (ip), vehicle: saline): 104 % of control and 124 % of control; T/C (dose: 0.25 mg/kg/injection, schedule: Q03HX008 (ip), vehicle: saline): 117 % of control; T/C (dose: 0.25 mg/kg/injection, schedule: Q03HX016 (ip), vehicle: saline): 121 % of control; T/C (dose: 0.39 mg/kg/injection, schedule: Q01DX009 (ip), vehicle: water): 104 % of control; T/C (dose: 0.4 mg/kg/injection, schedule: Q01DX009 (ip), vehicle: saline): 107 % of control; T/C (dose: 0.5 mg/kg/injection, schedule: Q01DX009 (ip), vehicle: saline): 150 % of control; T/C (dose: 0.5 mg/kg/injection, schedule: Q03HX016 (ip), vehicle: saline): 158 % of control; T/C (dose: 0.78 mg/kg/injection, schedule: Q01DX009 (ip), vehicle: water): 120 % of control; T/C (dose: 0.8 mg/kg/injection, schedule: Q01DX009 (ip), vehicle: saline): 190 % of control; T/C (dose: 1.0 mg/kg/injection, schedule: Q01DX001 (ip), vehicle: other): 103 % of control; T/C (dose: 1.0 mg/kg/injection, schedule: Q01DX001 (ip), vehicle: saline): 173 % of control; T/C (dose: 1.0 mg/kg/injection, schedule: Q01DX009 (ip), vehicle: saline): 161 % of control and 186 % of control; T/C (dose: 1.0 mg/kg/injection, schedule: Q01DX009 (ip), vehicle: water): 108 % of control; T/C (dose: 1.0 mg/kg/injection, schedule: Q01DX009 (sc), vehicle: saline): 161 % of control; T/C (dose: 1.0 mg/kg/injection, schedule: Q03HX008 (ip), vehicle: saline): 165 % of control; T/C (dose: 1.0 mg/kg/injection, schedule: Q03HX016 (ip), vehicle: saline): 280 % of control; T/C (dose: 1.1 mg/kg/injection, schedule: Q01DX009 (ip), vehicle: saline): 246 % of control; T/C (dose: 1.25 mg/kg/injection, schedule: Q01DX001 (ip), vehicle: saline): 116 % of control and 122 % of control; T/C (dose: 1.3 mg/kg/injection, schedule: Q01DX009 (ip), vehicle: saline): 159 % of control; T/C (dose: 1.5 mg/kg/injection, schedule: Q01DX009 (ip), vehicle: saline): 171 % of control and 189 % of control; T/C (dose: 1.56 mg/kg/injection, schedule: Q01DX009 (ip), vehicle: water): 160 % of control; T/C (dose: 1.8 mg/kg/injection, schedule: Q01DX009 (ip), vehicle: saline): 255 % of control; T/C (dose: 2.0 mg/kg/injection, schedule: Q01DX001 (ip), vehicle: none): 120 % of control; T/C (dose: 2.0 mg/kg/injection, schedule: Q01DX001 (ip), vehicle: other): 124 % of control; T/C (dose: 2.0 mg/kg/injection, schedule: Q01DX001 (sc), vehicle: saline): 114 % of control; T/C (dose: 2.0 mg/kg/injection, schedule: Q01DX009 (ip), vehicle: saline): 206 % of control and 290 % of control and 306 % of control; T/C (dose: 2.0 mg/kg/injection, schedule: Q01DX009 (ip), vehicle: water): 119 % of control; T/C (dose: 2.0 mg/kg/injection, schedule: Q01DX009 (oral), vehicle: saline): 173 % of control; T/C (dose: 2.0 mg/kg/injection, schedule: Q01DX009 (sc), vehicle: saline): 201 % of control; T/C (dose: 2.0 mg/kg/injection, schedule: Q03HX008 (ip), vehicle: saline): 430 % of control; T/C (dose: 2.0 mg/kg/injection, schedule: Q03HX016 (ip), vehicle: saline): 207 % of control; T/C (dose: 2.0 mg/kg/injection, schedule: Q04DX003 (ip), vehicle: saline): 172 % of control; T/C (dose: 2.0 mg/kg/injection, schedule: Q08DX002 (ip), vehicle: saline): 155 % of control; T/C (dose: 2.2 mg/kg/injection, schedule: Q01DX009 (ip), vehicle: saline): 210 % of control and 297 % of control; T/C (dose: 2.6 mg/kg/injection, schedule: Q01DX009 (ip), vehicle: saline): 206 % of control and 470 % of control; T/C (dose: 3.0 mg/kg/injection, schedule: Q01DX009 (ip), vehicle: saline): 229 % of control; T/C (dose: 3.13 mg/kg/injection, schedule: Q01DX009 (ip), vehicle: water): 213 % of control; T/C (dose: 4.0 mg/kg/injection, schedule: Q01DX001 (oral), vehicle: saline): 176 % of control; T/C (dose: 4.0 mg/kg/injection, schedule: Q01DX009 (oral), vehicle: saline): 86 % of control; T/C (dose: 4.0 mg/kg/injection, schedule: Q04DX003 (ip), vehicle: saline): 208 % of control; T/C (dose: 4.0 mg/kg/injection, schedule: Q08DX002 (ip), vehicle: saline): 213 % of control; T/C (dose: 5.0 mg/kg/injection, schedule: Q01DX001 (ip), vehicle: saline): 165 % of control and 170 % of control; T/C (dose: 5.0 mg/kg/injection, schedule: Q01DX001 (ip), vehicle: water): 222 % of control; T/C (dose: 6.25 mg/kg/injection, schedule: Q01DX009 (ip), vehicle: water): 97 % of control; T/C (dose: 6.5 mg/kg/injection, schedule: Q01DX001 (ip), vehicle: saline): 273 % of control and 327 % of control; T/C (dose: 6.7 mg/kg/injection, schedule: Q01DX001 (ip), vehicle: saline): 257 % of control; T/C (dose: 8.0 mg/kg/injection, schedule: Q01DX001 (ip), vehicle: none): 207 % of control; T/C (dose: 8.0 mg/kg/injection, schedule: Q01DX001 (ip), vehicle: other): 316 % of control; T/C (dose: 8.0 mg/kg/injection, schedule: Q01DX001 (oral), vehicle: saline): 240 % of control; T/C (dose: 8.0 mg/kg/injection, schedule: Q01DX001 (sc), vehicle: saline): 150 % of control; T/C (dose: 8.0 mg/kg/injection, schedule: Q01DX009 (ip), vehicle: water): 279 % of control; T/C (dose: 8.0 mg/kg/injection, schedule: Q04DX003 (ip), vehicle: saline): 103 % of control; T/C (dose: 9.1 mg/kg/injection, schedule: Q01DX009 (ip), vehicle: saline): 86 % of control; T/C (dose: 9.7 mg/kg/injection, schedule: Q01DX001 (ip), vehicle: saline): 151 % of control and 254 % of control; T/C (dose: 10.0 mg/kg/injection, schedule: Q01DX001 (ip), vehicle: water): 278 % of control; T/C (dose: 11.6 mg/kg/injection, schedule: Q01DX001 (ip), vehicle: saline): 234 % of control and 314 % of control; T/C (dose: 16.0 mg/kg/injection, schedule: Q01DX001 (ip), vehicle: none): 155 % of control; T/C (dose: 16.0 mg/kg/injection, schedule: Q01DX001 (ip), vehicle: other): 279 % of control; T/C (dose: 16.0 mg/kg/injection, schedule: Q01DX001 (oral), vehicle: saline): 223 % of control; T/C (dose: 16.0 mg/kg/injection, schedule: Q01DX009 (ip), vehicle: water): 383 % of control; T/C (dose: 16.0 mg/kg/injection, schedule: Q08DX002 (ip), vehicle: saline): 90 % of control; T/C (dose: 32.0 mg/kg/injection, schedule: Q01DX001 (ip), vehicle: none): 64 % of control; T/C (dose: 200.0 mg/kg/injection, schedule: Q01DX001 (ip), vehicle: water): 115 % of control; T/C (dose: 400.0 mg/kg/injection, schedule: Q01DX001 (ip), vehicle: water): 199 % of control; T/C (dose: 800.0 mg/kg/injection, schedule: Q01DX001 (ip), vehicle: water): 158 % of control; T/C (dose: 125.0 micrograms/kg/injection, schedule: Q03HX024 (ip), vehicle: saline): 121 % of control; T/C (dose: 500.0 micrograms/kg/injection, schedule: Q03HX024 (ip), vehicle: saline): 165 % of control; T/C (dose: 1000.0 micrograms/kg/injection, schedule: Q03HX024 (ip), vehicle: saline): 211 % of control

`CN(C)C(=O)C(=O)C1C=Cc2ccccc21` (stereo not given) was tested. Which T/C [1] did it give?
The T/C was 93 % of control.

What about the T/C [2] of the same molecule?
Its T/C is 88 % of control.

And the T/C [3]?
Its T/C is 102 % of control.

Which results are given for `COc1cc(CC(=O)C(=O)O)oc(=O)c1`?
T/C [1]: 102 % of control; T/C [2]: 95 % of control; T/C [3]: 98 % of control

`COc1cccc(S(C)(=O)=O)c1` was tested. Which T/C (dose: 75.0 mg/kg/injection, schedule: Q01DX009 (ip), vehicle: saline) did it give?
The T/C was 105 % of control.

What about the T/C (dose: 75.0 mg/kg/injection, schedule: Q04DX003 (ip), vehicle: saline) of the same molecule?
The T/C was 101 % of control.

And the T/C (dose: 150.0 mg/kg/injection, schedule: Q01DX009 (ip), vehicle: saline)?
The T/C was 97 % of control.

What about the T/C (dose: 150.0 mg/kg/injection, schedule: Q04DX003 (ip), vehicle: saline) of the same molecule?
Its T/C is 101 % of control.

And the T/C (dose: 300.0 mg/kg/injection, schedule: Q01DX009 (ip), vehicle: saline)?
The T/C was 92 % of control.

What about the T/C (dose: 300.0 mg/kg/injection, schedule: Q04DX003 (ip), vehicle: saline) of the same molecule?
The T/C was 100 % of control.
